One molecule from article PMC6009907, “Synthesis, characterization and in vitro inhibition of metal complexes of pyrazole based sulfonamide on human erythrocyte carbonic anhydrase isozymes I and II” (Journal of Enzyme Inhibition and Medicinal Chemistry, 2017) can be followed below.

Common to all, as to type: biochemical
Assay [1] has as its target T1, hCA-II (Homo sapiens, UniProt P00918).
T1 construct: Purification of isoenzymes hCA-I and hCA-II from human erythrocytes; from tissue; host or cells: human erythrocytes (blood)
Description: CO2-hydratase activity assay (Wilbur and Anderson), hCA-II. To be noted: hCA-II purified from human erythrocytes; CO2 hydration. The protocol: (§1) In order to purify hCA-I and hCA-II isoenzymes, first, human blood was centrifuged at 1500 rpm for 20 min, and after the removal of the plasma, the erythrocytes were washed with an isotonic solution (0.9% NaCl). After that, the erythrocytes were lysed with 1.5 volume of ice-cold water. The lysate was centrifuged at 20 000 rpm for 30 min to remove cell membranes and non-lysed cells. […] After extensive washing with 25 mM tris–HCl/22 mM Na2SO4 (pH 8.7), the hCA-I and hCA-II isoenzymes were eluted with 1.0 M NaCl/25 mM Na2HPO4 (pH 6.3) and 0.1 M CH3COONa/0.5 M NaClO4 (pH 5.6).[45]^,[46] The amount of purified protein was estimated by the Bradford method[47] and SDS-PAGE was carried out to determine whether the elute containing the enzyme[48] (Supplemental Figure 1).
(§2) Carbonic anhydrase activity was assayed by following the hydration of CO2 according to the method described by Wilbur and Anderson.[49] CO2-hydratase activity as an enzyme unit (EU) was calculated by using the equation ((t0−tc)/tc) where t0 and tc are the times for pH change of the nonenzymatic and the enzymatic reactions, respectively.

The target in assay [2] is T2, hCA-I (Homo sapiens, UniProt P00915).
T2 construct: Purification of isoenzymes hCA-I and hCA-II from human erythrocytes; from tissue; host or cells: human erythrocytes (blood)
Description: CO2-hydratase activity assay (Wilbur and Anderson), hCA-I. As to conditions: hCA-I purified from human erythrocytes; CO2 hydration. The protocol: as §1, §2

For assay [3], the target named is T2, hCA-I. Description: Determination of Ki values (esterase activity, Lineweaver–Burk), hCA-I. As to conditions: five substrate concentrations, Lineweaver–Burk plot. The method, then:
as §1
(§3) The method for determination of Ki values is described elsewhere.[52–56] […] Regression analysis graphs were drawn by plotting inhibitor concentrations versus enzyme activity by using Microsoft Excel Program.

Assay [4] concerns the target T1, hCA-II. Description: Determination of Ki values (esterase activity, Lineweaver–Burk), hCA-II. To be noted: five substrate concentrations, Lineweaver–Burk plot. The method, then: as §1, §3
For assay [5], the target named is T1, hCA-II. Description: Esterase activity assay (4-nitrophenylacetate, 348 nm), hCA-II. To be noted: hCA-II purified from human erythrocytes, 25 °C, pH 7.4. The method, then:
as §1
(§4) The enzymatic reaction, in a total volume of 3.0 mL, contained 1.4 mL of 0.05 M tris–SO4 buffer (pH 7.4), 1 mL of 3 mM 4-nitrophenylacetate, 0.5 mL H2O and 0.1 mL enzyme solution. A reference measurement was obtained by preparing the same cuvette without enzyme solution.
as §3

For assay [6], the target named is T2, hCA-I. Description: Esterase activity assay (4-nitrophenylacetate, 348 nm), hCA-I. To be noted: hCA-I purified from human erythrocytes, 25 °C, pH 7.4. The protocol:
as §1, §4, §3

In general, IC50 refers to the concentration needed to halve the response being measured. Read a high IC50 as weaker potency in that assay. Usually Ki stands for the dissociation constant of the complex between target and ligand, obtained from inhibition or displacement. Read a low Ki as a stronger hold on the target.

T2 sequence (P00915 whole entry): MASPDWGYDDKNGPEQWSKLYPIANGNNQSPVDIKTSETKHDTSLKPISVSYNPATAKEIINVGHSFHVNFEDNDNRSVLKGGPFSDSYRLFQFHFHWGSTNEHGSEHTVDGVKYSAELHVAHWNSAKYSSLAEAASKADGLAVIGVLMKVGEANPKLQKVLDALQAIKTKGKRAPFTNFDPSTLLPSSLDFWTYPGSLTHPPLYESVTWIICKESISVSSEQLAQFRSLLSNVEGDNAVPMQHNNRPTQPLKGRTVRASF

On to `CCOC(=O)c1c(C(=O)Nc2nnc(S(N)(=O)=O)s2)nn(-c2cccc([N+](=O)[O-])c2)c1-c1ccccc1` [compound 1, ethyl 1-(3-nitrophenyl)-5-phenyl-3-((5-sulfamoyl-1,3,4-thiadiazol-2-yl)carbamoyl)-1H-pyrazole-4-carboxylate], for which the IC50 was 900 nM against hCA-II [1], 1400 nM against hCA-I [2], 5600 nM against hCA-II [5] and 2800 nM on hCA-I [6]. Besides, the Ki on hCA-I [3] came out at 1100 nM; at hCA-II [4], 5300 nM.
